Assay results reported in ChEMBL document CHEMBL1201862, “PubChem BioAssay data set” (2004).
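Compound exposure: 48 hours, 5 concentrations, 96-well plates. At the GI50, growth is halved.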 Activity calls are given as the source filed them. Cut-off read from the data, not from the text of the source: active = GI50 up to about 1.1 µM and inactive = higher.

How the values were obtained:
Experiment in all cases: NCI-60 cell line screen, 48 h
[1] = tested on: U-251
[2] = tested on: SNB-19
[3] = tested on: M14
[4] = tested on: UO-31
[5] = tested on: CAKI-1
[6] = tested on: SK-OV-3
[7] = tested on: TK-10
[8] = tested on: HOP-92
[9] = tested on: EKVX
[10] = tested on: NCI/ADR-RES
[11] = tested on: ACHN
[12] = tested on: UACC-62
[13] = tested on: HOP-62
[14] = tested on: COLO 205
[15] = tested on: NCI-H23
[16] = tested on: KM12
[17] = tested on: HCT-15
[18] = tested on: NCI-H226
[19] = tested on: OVCAR-8
[20] = tested on: IGROV-1

| SMILES | GI50 [1] | GI50 [2] | GI50 [3] | GI50 [4] | GI50 [5] | GI50 [6] | GI50 [7] | GI50 [8] | GI50 [9] | GI50 [10] | GI50 [11] | GI50 [12] | GI50 [13] | GI50 [14] | GI50 [15] | GI50 [16] | GI50 [17] | GI50 [18] | GI50 [19] | GI50 [20] |
| --- | --- | --- | --- | --- | --- | --- | --- | --- | --- | --- | --- | --- | --- | --- | --- | --- | --- | --- | --- | --- |
| N=C(N)NCC(N)C(=O)O (stereo not given) | > 100 µM (inactive) | > 100 µM (inactive) | > 100 µM (inactive) | > 100 µM (inactive) | > 100 µM (inactive) | > 100 µM (inactive) | > 100 µM (inactive) | > 100 µM (inactive) | > 100 µM (inactive) | > 100 µM (inactive) | > 100 µM (inactive) | > 100 µM (inactive) | > 100 µM (inactive) | > 100 µM (inactive) | > 100 µM (inactive) | > 100 µM (inactive) | > 100 µM | > 100 µM (inactive) | > 100 µM (inactive) | > 100 µM (inactive) |
| Clc1ccc(CCn2ccc3ccccc32)c(Cl)c1 | > 100 µM (inactive) | > 100 µM (inactive) | > 100 µM (inactive) | > 100 µM (inactive) | > 100 µM (inactive) | > 100 µM (inactive) | > 100 µM (inactive) | > 100 µM (inactive) | > 100 µM (inactive) | > 100 µM (inactive) | > 100 µM (inactive) | > 100 µM (inactive) | > 100 µM (inactive) | > 100 µM (inactive) | > 100 µM (inactive) | > 100 µM (inactive) | > 100 µM | > 100 µM (inactive) | > 100 µM (inactive) | > 100 µM (inactive) |
| Cn1c(=O)c2nc3sc4c(n3c2n(C)c1=O)C(=O)c1ccccc1C4=O | 39 µM (inactive) | > 44.1 µM (inactive) | > 100 µM (inactive) | > 66.2 µM (inactive) | > 78.9 µM (inactive) | > 47.5 µM (inactive) | > 100 µM (inactive) | 16.5 µM (inactive) | > 100 µM (inactive) | 19 µM (inactive) | > 32.4 µM (inactive) | > 100 µM (inactive) | > 38.9 µM (inactive) | > 73.5 µM (inactive) | 57.3 µM (inactive) | > 100 µM (inactive) | > 59.6 µM | 65.8 µM (inactive) | > 58.6 µM (inactive) | > 54.3 µM (inactive) |
| COc1ccc(Nc2nc(N)c(C(=O)c3c[nH]c4ccccc34)s2)cc1 | 1.58 µM (inactive) | 2.82 µM (inactive) | 1.23 µM (inactive) | 3.52 µM (inactive) | 2.18 µM (inactive) | 4.51 µM (inactive) | 5.56 µM (inactive) | 5.36 µM (inactive) | 3.05 µM (inactive) | 1 µM (active) | 5.12 µM (inactive) | 5.79 µM (inactive) | 8.02 µM (inactive) | 0.731 µM (active) | 3.4 µM (inactive) | 0.689 µM (active) | 0.433 µM | 11.1 µM (inactive) | 2.36 µM (inactive) | 1.13 µM (inactive) |
| Cn1c(=O)c2[nH]c(/N=N/N3CCN(CCO)CC3)nc2n(C)c1=O | > 100 µM (inactive) | > 100 µM (inactive) | > 100 µM (inactive) | > 100 µM (inactive) | > 100 µM (inactive) | > 100 µM (inactive) | > 100 µM (inactive) | > 100 µM (inactive) | > 100 µM (inactive) | 67 µM (inactive) | > 100 µM (inactive) | > 100 µM (inactive) | > 100 µM (inactive) | > 100 µM (inactive) | > 100 µM (inactive) | > 100 µM (inactive) | > 100 µM | > 100 µM (inactive) | > 100 µM (inactive) | > 100 µM (inactive) |
| COc1ccc2c(Cc3c4ccccc4cc4ccccc34)cncc2c1O | 1.45 µM (inactive) | 2.08 µM (inactive) | 2.26 µM (inactive) | 4.4 µM (inactive) | 4.15 µM (inactive) | 2.96 µM (inactive) | 3.94 µM (inactive) | 1.81 µM (inactive) | 8.22 µM (inactive) | 0.67 µM (active) | 2.14 µM (inactive) | 2.9 µM (inactive) | 4.11 µM (inactive) | 17.7 µM (inactive) | 2.37 µM (inactive) | 1.93 µM (inactive) | 1.15 µM | 3.27 µM (inactive) | 1.1 µM (active) | 2.92 µM (inactive) |
| CC1OC1C(=O)P(=O)(O)O (stereo not given) | > 100 µM (inactive) | > 100 µM (inactive) | > 100 µM (inactive) | > 100 µM (inactive) | > 100 µM (inactive) | > 100 µM (inactive) | > 100 µM (inactive) | > 100 µM (inactive) | > 100 µM (inactive) | > 100 µM (inactive) | > 100 µM (inactive) | > 100 µM (inactive) | > 100 µM (inactive) | > 100 µM (inactive) | > 100 µM (inactive) | > 100 µM (inactive) | > 100 µM | > 100 µM (inactive) | > 100 µM (inactive) | > 100 µM (inactive) |
